Laboratory results published in patent publication US9394318B2, “Crystal polymorph of magnesium glycinate dihydrate and process for its preparation” (Cypress Pharmaceutical, Inc., priority 2012, dated 2016).

Columns and labels:
[1] = 4.0 mL PBS + 20 mg binder, mixed 1 h at room temperature; hypothetical results; dihydrate
Description: Exemplary stock solutions suitable for phosphate-binding assays include the following: phosphate-binding solution (“PBS”) containing 10 mM KH2PO4, 30 mM Na2CO3, 80 mM NaCl, as described in Rosenbaum et al. Nephrol. Dial. Transplant. 12:961-964 (1997); acetate buffer (“AB”) solution containing 0.1N acetic acid, 0.025N sodium acetate, as described in Lowry & Lopez J. Biol. Chem. 162:421-428 (1946); ammonium molybdate (“AM”) solution containing 1% ammonium molybdate in 0.05N H2SO4, as described in Lowry & Lopez; ascorbic acid (“AA”) solution containing 1% ascorbic acid in H2O, as described in Lowry & Lopez.
In general, the phosphate-binding assays are conducted in 12×75 mm glass tubes. 4.0 mL PBS and 20 mg putative phosphate binder are added to a glass tube and then mixed for 1 h at room temperature. 0.1 mL supernatant is pipetted from this tube to a new test tube. 3.0 mL AB, 0.3 mL AA and 0.3 mL AM solutions are added and O.D. is measured at 700 nm after 10 minutes.
The phosphate binding capacity was calculated as follows (mcg stands for micrograms): ((O.D. of sample×95)/O.D. of standard)×40=(mcg)PO4 left in solution ((3800(mcg)PO4 left)×50)/1000=(mcg)PO4 bound per gram of phosphate binder.
The phosphate binding capacities of samples of magnesium glycinate dihydrate produced by the process of Example 1 are measured. X-ray powder diffraction is conducted on each of the samples to verify that they consist of the polymorph described in Example 2.

[2] = as described in the '012 application, cited from earlier work

| Compound | PO4 binding [1] | also measured |
| --- | --- | --- |
| O=C1C[NH][Mg]2([OH])([OH])([NH]CC(=O)[O]2)[O]1 [Sample 3, magnesium glycinate dihydrate] | 176.2 mg/g |  |
| O=C1C[NH][Mg]2([OH])([OH])([NH]CC(=O)[O]2)[O]1 [Sample 1, magnesium glycinate dihydrate] | 175.0 mg/g |  |
| O=C1C[NH][Mg]2([OH])([OH])([NH]CC(=O)[O]2)[O]1 [Sample 2, magnesium glycinate dihydrate] | 177.0 mg/g |  |
| magnesium glycinate [magnesium glycinate salt] |  | ability to bind phosphate per gram ([2]; in vitro phosphate binding assay): at least 50 mg phosphate per gram |
| [Cl-].[Cl-].[Mg+2] [magnesium chloride] |  | ability to bind phosphate ([2]; formed from magnesium glycinate and stomach acid (HCl)): does not have the ability to bind phosphate in appreciable quantities |
| O=C1C[NH][Mg]2([OH])([OH])([NH]CC(=O)[O]2)[O]1 [Sample 4, magnesium glycinate dihydrate] | 178.1 mg/g |  |
